Columns and labels:
[1] = system: blood-glucose concentration; test: ED30 oral hypoglycemic dose in mice (Table 2); assay type: in vivo; settings: Mus musculus, oral, read-out: Effective oral doses ED30
Method: The hypoglycemic activity of N-{4-[2-(pyrazole-1-carbonamide)-ethyl]-benzenesulphonyl}-ureas prepared according to the present invention can be noticed after their oral administration to mice, rats, rabbits and people and when determining the glucose concentration in blood with a known enzymatic method using glucose oxidase.
(Table 2). […] It has been observed that even 9 hours after the administration of one dose of SPC-5002 to rats, the glucose level in blood was decreased, whereas in the case of Glibornuride the glucose level comes back to its normal value in 6 hours from the time of the administration.

[2] = Acute, subacute and protracted toxicity (6 months); assay type: in vivo
[3] = system: oxygen consumption in mitochondria of a rat's liver; test: Oxygen consumption of rat liver mitochondria; assay type: biochemical
Method: 2-oxoglutaran 2 mM, ADP 1 mM, mitochondria | protein 4 mg/m. […] The

[4] = system: calcium transmission in mitochondria of a rat's liver; test: Calcium transmission to rat liver mitochondria; assay type: biochemical; settings: for % of inhibition, calcium transmission: medium with CaCl 300 nmoles/ml
Method: Sucrose 170mM, KCl 10 mM, MgCl2 […], K2 HPO 5 mM, EGTA 0.01 mM
2-oxoglutaran 2 mM, ADP 1 mM, mitochondria
protein 4 mg/m. Temperature 25° C.
of hydrogen ion consumption. The calcium transmission to mitochondria was
studied with two methods; in a continuous way with a Radiometer calcium
electrode type F2112 or with an isotopic method.
*The medium contained Ca Cl 300 nmoles/ml.

SMILES: Cc1ccn(C(=O)NCCc2ccc(S(=O)(=O)NC(=O)NC3CCCCC3)cc2)n1 [SPC-5002, N-{4-[2-(3-methylpyrazole-1-carbonamide)-ethyl]-benzenesulphonyl}-N'-cyclohexylourea]
- ED30 [1]: 1.9 mg/kg
- changes in haematopoietic system ([2]; 6 months administration): No changes in the haematopoietic system
- effect on liver and kidneys ([2]; 6 months administration): did not handicap the activities of the liver and kidneys
- general number of white blood corpuscles ([2]; 6 months administration): did not influence the general number of white blood corpuscles
- toxicity ([2]; acute, subacute and protracted toxicity): extremely low toxicity
- body weight, consumption of food and water ([2]; compared with control group): did not reveal any differences between the control group and the group under examination
- effect on oxidation ([3]; 0.05 nM): no effect
- % of inhibition, oxygen consumption ([3]; concentration 0.05 n M): 0%
- % of inhibition, oxygen consumption ([3]; concentration 0.1 n M): 12%
- % of inhibition, oxygen consumption ([3]; concentration 0.3 n M): 21%
- % of inhibition, oxygen consumption ([3]; concentration 0.5 n M): 34%
- % of inhibition, oxygen consumption ([3]; concentration 0.7 n M): 47%
- % of inhibition, oxygen consumption ([3]; concentration 1.0 n M): 69%
- Ki ([3]; rat liver mitochondria): 750 µM
- % of inhibition, calcium transmission ([4]; concentration 0.05 n M): 8%
- Calcium transmission / Oxide consumption (ratio of inhibition) ([4]; concentration 0.1 n M): 1.75
- % of inhibition, calcium transmission ([4]; concentration 0.1 n M): 21%
- Calcium transmission / Oxide consumption (ratio of inhibition) ([4]; concentration 0.3 n M): 1.42
- % of inhibition, calcium transmission ([4]; concentration 0.3 n M): 30%
- Calcium transmission / Oxide consumption (ratio of inhibition) ([4]; concentration 0.5 n M): 1.55
- % of inhibition, calcium transmission ([4]; concentration 0.5 n M): 53%
- Calcium transmission / Oxide consumption (ratio of inhibition) ([4]; concentration 1.0 n M): 0.99
- % of inhibition, calcium transmission ([4]; concentration 1.0 n M): 68%
- Ki ([4]; rat liver mitochondria): 450 µM
- preference of inhibition: calcium transmission versus oxidizing processes ([4]; rat liver mitochondria): preferential inhibiting of calcium transmission
- Ki ratio SPC-5002 / Glibenclamide, calcium transmission ([4]; ratio of inhibitor constants): 10

From patent US4153710A, “N-(4-[2-(pyrazole-1-carbonamide)-ethyl]-benzenesulphonyl)-urea” (Starogardzkie Zaklady Farmaceutyczne POLFA, priority 1976, dated 1979)
